# Results reported in PubChem BioAssay (NCI).
#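 In this assay, cells in 96-well plates receive the compound at five concentrations for 48 hours. Endpoints are linearly interpolated between the surrounding concentrations. Here, GI50 denotes the concentration required for 50% inhibition of growth. TGI: concentration producing complete growth inhibition.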 Where a SMILES comes first, the peptide text is derived from it. [ ]: non-standard residue; d: D form. The star is where a group is joined. NMeF = CN[CH](Cc1ccccc1)C(=O)O; NMeV = CN[CH](C(=O)O)C(C)C; Boc = CC(C)(C)OC(=O)*
# How the values were obtained:
# Test in all cases: inhibition of tumour cell growth, NCI panel, 48 h
# 786-0 renal = system: 786-0 renal
# HT29 colon = system: HT29 colon
# M14 melanoma = system: M14 melanoma
# NCI-H226 lung = system: NCI-H226 lung
# NCI-H522 lung = system: NCI-H522 lung
# OVCAR-3 ovarian = system: OVCAR-3 ovarian
# OVCAR-5 ovarian = system: OVCAR-5 ovarian
# RXF 393 renal = system: RXF 393 renal
# HCC-2998 colon = system: HCC-2998 colon
# SNB-75 CNS = system: SNB-75 CNS
Structure (SMILES),GI50 (786-0 renal),TGI (786-0 renal),GI50 (HT29 colon),TGI (HT29 colon),GI50 (M14 melanoma),TGI (M14 melanoma),GI50 (NCI-H226 lung),TGI (NCI-H226 lung),GI50 (NCI-H522 lung),TGI (NCI-H522 lung),GI50 (OVCAR-3 ovarian),TGI (OVCAR-3 ovarian),GI50 (OVCAR-5 ovarian),TGI (OVCAR-5 ovarian),GI50 (RXF 393 renal),TGI (RXF 393 renal),GI50 (HCC-2998 colon),TGI (HCC-2998 colon),TGI (SNB-75 CNS),GI50 (SNB-75 CNS)
Clc1ccc(C2=Nn3c(COc4ccccc4Cl)nnc3SC2)c(Cl)c1,25.6 µM,65.4 µM,14 µM,27 µM,16.4 µM,41.4 µM,14.6 µM,41.6 µM,22.6 µM,80.3 µM,12.9 µM,29.2 µM,35.1 µM,87.1 µM,28.6 µM,> 100 µM,,,,
Cc1ccc(C(=O)CN(/C=C/C(=O)C(F)(F)F)c2ccc(S(N)(=O)=O)cc2)cc1,> 100 µM,> 100 µM,> 100 µM,> 100 µM,> 100 µM,> 100 µM,> 100 µM,> 100 µM,53.8 µM,> 100 µM,42.6 µM,> 100 µM,> 100 µM,> 100 µM,> 100 µM,> 100 µM,> 100 µM,> 100 µM,,
CN1c2ccc(Cl)cc2C(=O)NC1c1ccc([N+](=O)[O-])s1 (centres undefined),,30.8 µM,,39.1 µM,,32.5 µM,,,,,,31.4 µM,,54.1 µM,,24.6 µM,,31.1 µM,35.4 µM,
Cc1cccc(NC(=O)/C(=N\NC(C)(C)C)C2NC(=S)NC2=O)c1C (centres undefined),,> 100 µM,,,,> 100 µM,,,,,,> 100 µM,,> 100 µM,,,,> 100 µM,,
COc1ccccc1/C=C1\SC(=S)N(/C=C2\C(=O)Oc3ccccc3C2=O)C1=O,,> 100 µM,,> 100 µM,,> 100 µM,,> 100 µM,,95.7 µM,,44.6 µM,,> 100 µM,,,,,55.6 µM,
Clc1nc(Cl)c(Cl)c(-c2ccccc2)n1,,7.45 µM,,,,3.72 µM,,65.4 µM,,3.2 µM,,5.38 µM,,42.1 µM,,26.6 µM,,78 µM,21.5 µM,
COc1ccc(/C=C/c2ccnc3ccccc23)c(OC)c1,,> 10 µM,,,,> 10 µM,,> 10 µM,,> 10 µM,,> 10 µM,,> 10 µM,,> 10 µM,,> 10 µM,> 10 µM,
COc1cc(/C=C/c2cc(/C=C/c3ccc(O)c(OC)c3)n(C(=O)Nc3ccc(F)c(Cl)c3)n2)ccc1O,0.52 µM,1.71 µM,1.31 µM,4.26 µM,0.114 µM,1.59 µM,0.491 µM,2.3 µM,,,0.263 µM,0.837 µM,1.82 µM,6.87 µM,0.249 µM,0.828 µM,0.639 µM,3.71 µM,,
Cc1cc(Cl)ccc1N=C1NC(=O)C(CC(=O)Nc2ccc([N+](=O)[O-])cc2[N+](=O)[O-])S1 (centres undefined),,> 100 µM,,> 100 µM,,59.8 µM,,,,,,73.8 µM,,86.8 µM,,,,> 100 µM,44.2 µM,
Cc1ccn2c(c1)nc1nc3ccccc3nc12,,> 100 µM,,> 100 µM,,> 100 µM,,> 100 µM,,> 100 µM,,> 100 µM,,> 100 µM,,> 100 µM,,,> 100 µM,
NCC1Nc2ccccc2[C@@H](O)C1O (some centres undefined),,> 100 µM,,> 100 µM,,> 100 µM,,> 100 µM,,,,> 100 µM,,> 100 µM,,> 100 µM,,> 100 µM,> 100 µM,
COC(C(O)CO)C(O)C(O)C(=O)NNc1ccccc1 (centres undefined),,> 100 µM,,> 100 µM,,> 100 µM,,,,> 100 µM,,> 100 µM,,> 100 µM,,> 100 µM,,> 100 µM,> 100 µM,
CC1CC[C@]2(C(=O)O)CCC3(C)C(=CC(=O)C4[C@@]5(C)CCC(=O)C(C)(C)C5CC[C@]43C)[C@@H]2[C@H]1C (some centres undefined),,> 100 µM,,> 100 µM,,> 100 µM,,92.6 µM,,71.3 µM,,44 µM,,,,49.4 µM,,,> 100 µM,
O=S(=O)(N=S(c1ccccc1)c1ccccc1)c1ccccc1,,> 100 µM,,> 100 µM,,> 100 µM,,> 100 µM,,,,> 100 µM,,> 100 µM,,> 100 µM,,,,
COC(=O)/C(=N\Nc1nnc(C)n1N)C(C#N)c1ccc(Cl)cc1 (centres undefined),,> 100 µM,,> 100 µM,,> 100 µM,,> 100 µM,,,,> 100 µM,,> 100 µM,,> 100 µM,,> 100 µM,> 100 µM,
O=C1CCN2C(=O)CCN12,,> 100 µM,,> 100 µM,,> 100 µM,,> 100 µM,,> 100 µM,,> 100 µM,,> 100 µM,,,,,,
Cc1cc(S(=O)(=O)Nc2nnc(-c3ccccc3)c(-c3ccccc3)n2)c(SCC(N)=O)cc1Cl,38.6 µM,> 100 µM,> 100 µM,> 100 µM,56.5 µM,> 100 µM,59.9 µM,> 100 µM,22.9 µM,50.9 µM,19.6 µM,42.8 µM,> 100 µM,> 100 µM,,,,,> 100 µM,> 100 µM
Cc1ccc(C2=C(c3ccccc3)C(Br)(c3ccc(C)cc3)C(c3ccccc3)=C2c2ccc(C)cc2)cc1,,> 100 µM,,,,> 100 µM,,,,,,> 100 µM,,> 100 µM,,,,> 100 µM,,
CC(C)C(NC(=O)OC(C)(C)C)C(=O)N(C)C(Cc1ccccc1)C(=O)N(C)C(C(=O)O)C(C)C (stereo not drawn) (Boc-Val-[NMeF]-[NMeV]-OH; configuration not given here),,> 100 µM,,> 100 µM,,> 100 µM,,> 100 µM,,> 100 µM,,> 100 µM,,,,,,> 100 µM,,
O=C1OC(C(O)CO)C(=O)C1=O (centres undefined),3170 µM,8770 µM,4240 µM,> 10000 µM,6700 µM,> 10000 µM,> 10000 µM,> 10000 µM,1850 µM,3460 µM,,,2050 µM,4330 µM,1700 µM,3210 µM,> 10000 µM,> 10000 µM,> 10000 µM,6160 µM
CCOc1ccccc1NC(=O)CC(C(=O)OC)C(=O)C(=O)OC (centres undefined),,> 100 µM,,> 100 µM,,> 100 µM,,> 100 µM,,> 100 µM,,> 100 µM,,> 100 µM,,> 100 µM,,> 100 µM,,
